# Reference: patent US20100015709A1, “Regulating Stem Cell Differentiation By Controlling 2D and 3D Matrix Elasticity” (Trustees of the University of Pennsylvania, priority 2006, published 2010)
# Key:
# MSCs [1] = experiment: MSC morphology (branching, spindle factor, spreading) on collagen-coated gels; type: cell-based, human
# Protocol: Cell Culture: Human Mesenchymal Stem Cells (MSCs; Osiris Therapeutics; Baltimore, Md. or Lonza), human osteoblasts (hFOBs; ATCC, Manassas, Va.), primary human skin fibroblasts (FC7) (Engler et al., 2004c, supra), and murine myoblasts (C2C12s; ATCC) were cultured in normal growth media, such as low glucose DMEM (Invitrogen) supplemented with 10% fetal bovine serum (FBS, Sigma) and 1% penicillin/streptomycin (Invitrogen) in regular tissue culture treated flasks (Corning). See also, U.S. Ser. No. 11/351,420. Media was exchanged every other day and cells were used up to passage number nine.
# (§1) To inhibit proliferation, cells were exposed to mitomycin C (10 μg/ml) for 2 hr and washed three times with media prior to plating. Blebbistatin (50 μM; EMD Biosciences, Inc., San Diego, Calif.), a NMM II inhibitor, was applied with every media change and was stable in culture media for up to 48 hours, as determined by thin layer chromatography.
# (§2) 1) Morphological Changes and Immunofluorescence: Changes in cell shape (<4 days), especially the development of neurite-like branches (Engler et al., 2004c, supra) or spindle-like morphologies (Flanagan et al., 2002, supra), were quantified either by the number of membrane branches per mm of cell or by a “spindle factor,” referring to the major cell axis/minor cell axis, respectively. […]
# [2] = Stability in culture media by thin layer chromatography; type: physicochemical; settings: 50 μM
# Protocol: as §1
# MSCs [3] = experiment: Lineage marker expression (immunofluorescence, western blot, oligonucleotide array); type: cell-based, human; settings: blebbistatin 50 μM
# Protocol: as §2
# Cells were fixed with formaldehyde, incubated in a 5% albumin blocking solution for 1 hour at 37° C., permeabilized with 0.5% Triton-X-100 and incubated overnight at 4° C. in 1:100 dilution of antibodies in PBS. […] Cell morphology and fluorescently labeled cells were examined on a TE300 inverted epi-fluorescent Nikon or Olympus (TIRF) microscope, imaged on a cascade CCD camera (PhotoMetrics, Huntington, Beach, Calif.), and quantified with Scion Image (Scion Corp., Frederick, Md.).
# 2) Western blotting: Cells (with or without blebbistatin treatment, 50 μM) were also plated on 45×50 mm coverslips to obtain enough cells for western blotting. […] Quantification of western blots was done by Scion Image software. […]
# [4] = system: MSCs, C2C12-myoblasts, hFOB-osteoblasts; experiment: Creep-test micropipette aspiration, membrane cortical stiffness; type: cell-based
# Protocol: Creep-test Micropipette Aspiration: Micropipettes were forged using a deFonbrune-type microforge (Vibratome, St. Louis, Mo.) to a radius of 2-3 μm with an approximately 25° pipette curvature so when mounted in micromanipulators (Nirishige; Japan) at an angle similar to the micropipette's curvature. The end of the pipette was flush with the cell edge. A step pressure drop was imposed on the cell membrane, causing the membrane projection, L, to aspirate into the pipette as a function of time (t), pressure drop (ΔP) and pipette radius (R), as governed by the Sato and coworkers' viscoelastic half-space model (Sato et al., J. Biomech. Eng. 112:263-268 (1990), herein incorporated by reference:
# Images of the projection length were taken every 2 seconds in brightfield on a TE300 inverted Nikon microscope and cascade CCD camera (Photometrics), which allowed accurate fitting of the parameters κ, μ′, and τ to the data to determine the elastic and viscous moduli of each membrane.
# [5] = system: MSCs, C2C12-myoblasts, hFOB-osteoblasts; experiment: Traction force measurement, cell pre-stress; type: cell-based; settings: any matrix
# From the text: Traction Force Measurements: Adhesive stresses, imposed on the matrix surface by an adherent cell, generate a displacement field from embedded beads within a soft substratum, which can be mapped on the cell if the gel can be approximated as a semi-infinite solid. Briefly, the well characterized traction force method (Butler et al., 2002, supra; Dembo et al., 1999, supra; Wang et al., 2002b, supra) uses bead displacements between images with, and without, the adherent cell to assemble a displacement field and determine Green's strain function given known material properties of the substratum (elastic modulus, Poisson's ratio, etc). The traction field was used to obtain the cell pre-stress, i.e., the net tensile force over the cell-matrix interface carried by the actin cytoskeleton across a cross-sectional area of the cell that balances cell traction forces (Wang et al., 2002b, supra).
# MSCs [6] = experiment: 3D hydrogel sandwich overlay, cell morphology; type: cell-based, human; settings: treated after the overlay procedure
# Protocol: Hydrogel Sandwich Preparation: The whole procedure is performed in a biosafety cabinet to maintain sterility. All equipment used was either sterile or sterilized by UV treatment for one hour. To produce the sandwich-like structures, cells were cultured for a given time on regular 2D substrates supported by 25 mm aminosilanized cover slips, rinsed with PBS and dried of the bulk liquid. 35 μl of the hydrogel mixture was added immediately and the sample was covered with a hydrophobic chlorosilanized glass slip to create a homogenous overlay gel. After one hour the top cover slip was carefully removed and the sandwich rinsed with PBS to remove any unbound residues. Subsequently, the gels were incubated for two hours at 37° C./5.0% CO2 in media supplemented with 1.5% or 2% cysteine (w/v) or iodacetamide solution using a shaker to cap or inactivate any remaining free thiols. […]
# Immuno-staining, fluorescence microscopy, and image analysis: Cells were fixed for five minutes in a 10% solution of formaldehyde (Sigma) in PBS (Gibco) and subsequently permeabilized with a 0.5% solution of TritonX 100 (Sigma) in PBS followed by rinsing in PBS. […]
# Cell area A and spindle factor r (ratio of major to minor axis of a fitted ellipse) were determined using the built-in functions of ImageJ (available at http:rsb.info.nih.gov/ij; developed by Wayne Rasband, National Institutes of Health, Bethesda, Md.). […]
# hMSCs = experiment: Nucleus morphology of hMSCs on gels; type: cell-based, human; settings: 11 kPa substrates
# Protocol: Immuno-staining, fluorescence microscopy, and image analysis: Cells were fixed for five minutes in a 10% solution of formaldehyde (Sigma) in PBS (Gibco) and subsequently permeabilized with a 0.5% solution of TritonX 100 (Sigma) in PBS followed by rinsing in PBS. Samples were then incubated in a 1:250 solution of the appropriate primary antibody in a 3% solution of BSA (Sigma) in PBS for at least 2 hours at room temperature on a rocker. To remove any unspecifically bound antibodies, the gels were incubated with a 0.5% solution of TritonX 100 for five minutes and rinsed with PBS twice, followed by incubation with secondary antibodies (1:250 in 3% BSA in PBS) and rhodamine-phalloidin (Sigma) for at least one hour on a rocker at room temperature. […]
# Cell area A and spindle factor r (ratio of major to minor axis of a fitted ellipse) were determined using the built-in functions of ImageJ (available at http:rsb.info.nih.gov/ij; developed by Wayne Rasband, National Institutes of Health, Bethesda, Md.).
# Since matrix elasticity not only influences cell and cytoskeleton morphology, but also the differentiation of hMSCs, and therefore global changes in patterns of gene expression, the morphology of the nucleus was analyzed in terms of projected area A and spindle factor of the projected area r to gain insight into the transduction of mechanical signals from the matrix to the nucleus. […]
# NMM II ATPase = settings: cited from earlier work
# [7] = target: myosin light chain kinase (MLCK) (Homo sapiens, UniProt Q15746); settings: at concentrations inhibiting NMM II ATPase; cited from earlier work
# vertebrate cells = settings: cited from earlier work
# neuronal motility = settings: at mM concentrations; cited from earlier work
# Sequence of myosin light chain kinase (MLCK) (Q15746 whole entry): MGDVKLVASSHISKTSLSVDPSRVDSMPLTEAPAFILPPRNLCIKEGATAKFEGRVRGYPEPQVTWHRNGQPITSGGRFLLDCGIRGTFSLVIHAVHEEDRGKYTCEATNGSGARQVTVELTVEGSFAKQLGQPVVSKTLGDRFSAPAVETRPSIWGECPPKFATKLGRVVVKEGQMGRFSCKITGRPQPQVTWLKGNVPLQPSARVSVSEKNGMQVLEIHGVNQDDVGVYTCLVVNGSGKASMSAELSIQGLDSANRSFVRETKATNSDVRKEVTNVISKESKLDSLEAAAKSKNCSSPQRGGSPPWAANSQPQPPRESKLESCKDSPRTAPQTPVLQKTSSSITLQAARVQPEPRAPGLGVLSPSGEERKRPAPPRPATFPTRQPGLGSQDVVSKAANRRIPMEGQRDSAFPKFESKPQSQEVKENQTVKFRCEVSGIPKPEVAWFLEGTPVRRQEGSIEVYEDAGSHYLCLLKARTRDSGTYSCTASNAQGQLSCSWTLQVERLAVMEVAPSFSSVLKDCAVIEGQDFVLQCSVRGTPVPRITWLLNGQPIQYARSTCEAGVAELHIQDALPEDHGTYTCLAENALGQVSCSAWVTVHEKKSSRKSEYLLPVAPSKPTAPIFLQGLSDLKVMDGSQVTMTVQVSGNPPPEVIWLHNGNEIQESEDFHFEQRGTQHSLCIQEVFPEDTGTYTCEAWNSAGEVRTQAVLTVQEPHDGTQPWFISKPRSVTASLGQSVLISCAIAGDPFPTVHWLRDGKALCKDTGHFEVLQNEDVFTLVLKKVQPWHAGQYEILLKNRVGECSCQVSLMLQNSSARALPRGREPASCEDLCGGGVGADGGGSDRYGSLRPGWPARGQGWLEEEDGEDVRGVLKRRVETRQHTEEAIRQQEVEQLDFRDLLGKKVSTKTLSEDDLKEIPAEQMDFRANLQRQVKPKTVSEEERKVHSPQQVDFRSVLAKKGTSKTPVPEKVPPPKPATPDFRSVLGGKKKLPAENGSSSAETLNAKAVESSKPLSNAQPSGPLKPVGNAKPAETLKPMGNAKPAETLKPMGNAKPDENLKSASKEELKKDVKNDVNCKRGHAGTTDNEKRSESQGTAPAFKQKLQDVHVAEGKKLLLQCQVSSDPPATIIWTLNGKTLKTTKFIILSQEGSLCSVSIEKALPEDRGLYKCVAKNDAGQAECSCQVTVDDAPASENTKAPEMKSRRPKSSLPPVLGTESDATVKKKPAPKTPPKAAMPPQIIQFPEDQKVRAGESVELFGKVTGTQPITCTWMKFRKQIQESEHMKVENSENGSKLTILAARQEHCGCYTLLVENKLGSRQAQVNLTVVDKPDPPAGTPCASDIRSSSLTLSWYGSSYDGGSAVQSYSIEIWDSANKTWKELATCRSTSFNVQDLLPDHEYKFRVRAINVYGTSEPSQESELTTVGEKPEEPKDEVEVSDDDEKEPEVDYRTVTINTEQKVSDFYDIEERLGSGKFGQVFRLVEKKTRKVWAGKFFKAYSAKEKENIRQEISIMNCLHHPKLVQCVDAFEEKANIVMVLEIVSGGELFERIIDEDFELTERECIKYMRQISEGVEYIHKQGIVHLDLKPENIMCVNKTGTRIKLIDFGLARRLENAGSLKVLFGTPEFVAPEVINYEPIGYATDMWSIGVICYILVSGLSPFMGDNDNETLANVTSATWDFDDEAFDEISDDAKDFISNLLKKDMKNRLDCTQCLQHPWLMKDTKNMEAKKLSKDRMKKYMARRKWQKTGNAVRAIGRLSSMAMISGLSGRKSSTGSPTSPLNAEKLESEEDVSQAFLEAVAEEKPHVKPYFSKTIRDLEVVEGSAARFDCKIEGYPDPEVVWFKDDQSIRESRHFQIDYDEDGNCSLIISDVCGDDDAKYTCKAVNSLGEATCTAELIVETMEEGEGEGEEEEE
smiles,measurement,setting,value
Cc1ccc2c(c1)C(=O)C1(O)CCN(c3ccccc3)C1=N2 (centres unmarked) [blebbistatin],"branching, elongation and spreading of MSCs","MSCs [1]; blebbistatin 50 μM, cells on any substrate","block branching, elongation, and any significant spreading of MSCs"
same,stability in culture media,[2],up to 48 hours
same,lineage marker expression by MSCs,MSCs [3],blocked all marker expression
same,development of cortical stiffness κ,[4]; any matrix,prevented any of the cells from developing
same,softening of cell membranes (membrane cortical stiffness),"[4]; micropipette aspiration, all gels",more than 3 fold
same,development of pre-stress σ,[5],prevented any of the cells from developing
same,actin stress fibers of cells in sandwich overlay,MSCs [6],lacked any organized actin stress fibers
same,spindle factor r of cells in sandwich overlay,MSCs [6],not significantly different from that of the 2D control
same,matrix-dependent change of nucleus projected area and aspect ratio,hMSCs,inhibited
same,drug concentration inhibiting NMM II ATPase activity,NMM II ATPase,< 10 µM
same,effect on myosin light chain kinase,[7],without affecting
same,"cell blebbing, directed cell migration and cytokinesis",vertebrate cells,blocking cell blebbing and rapidly disrupting directed cell migration and cytokinesis
CC(=O)/C(C)=N/O [BDM],neuronal motility,neuronal motility,block neuronal motility
"CO[C@@]12[C@H](COC(N)=O)C3=C(C(=O)C(C)=C(N)C3=O)N1C[C@@H]1N[C@@H]12 [mitomycin-C, mitomycin C]",average cell shape after inhibition of proliferation,MSCs [1]; mitomycin C 10 μg/ml for 2 hr before plating,little impact on average cell shape
